In the supplement of paper PMC10307832:

Tests used:
Experiment in all cases: relative viability (nuclei count vs DMSO), 5 days (fraction); higher = more cells survive
AZD8055 + Pemetrexed = compound: COc1ccc(-c2ccc3c(N4CCOC[C@@H]4C)nc(N4CCOC[C@@H]4C)nc3n2)cc1CO [AZD8055] + Nc1nc2[nH]cc(CCc3ccc(C(=O)N[C@@H](CCC(=O)O)C(=O)O)cc3)c2c(=O)[nH]1 [Pemetrexed] (partner 0.2 µM)
Procedure, shortened: (§1)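 Relative viability divides the nuclei count in treated wells by that in vehicle wells. Lung cancer cell lines were seeded in 1536-well plates, dosed by pin tool the next day, and fixed and stained after 5 days in one step with final 0.05% Triton X-100, 1% formaldehyde and 1 ug/ml Hoechst. Dosing was a single drug or a fixed anchor-drug dose plus five library-drug doses (not always all listed) in √10 steps, and values are medians of duplicate plates imaged at 4×.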

AZD8055 + Navitoclax = compound: COc1ccc(-c2ccc3c(N4CCOC[C@@H]4C)nc(N4CCOC[C@@H]4C)nc3n2)cc1CO [AZD8055] + CC1(C)CCC(c2ccc(Cl)cc2)=C(CN2CCN(c3ccc(C(=O)NS(=O)(=O)c4ccc(N[C@H](CCN5CCOCC5)CSc5ccccc5)c(S(=O)(=O)C(F)(F)F)c4)cc3)CC2)C1 [Navitoclax] (partner 0.5 µM)
Procedure, shortened: as §1

AZD8055 + Linsitinib = compound: COc1ccc(-c2ccc3c(N4CCOC[C@@H]4C)nc(N4CCOC[C@@H]4C)nc3n2)cc1CO [AZD8055] + C[C@]1(O)C[C@@H](c2nc(-c3ccc4ccc(-c5ccccc5)nc4c3)c3c(N)nccn32)C1 [Linsitinib] (partner 1 µM)
Procedure, shortened: as §1

AZD8055 + Vorinostat = compound: COc1ccc(-c2ccc3c(N4CCOC[C@@H]4C)nc(N4CCOC[C@@H]4C)nc3n2)cc1CO [AZD8055] + O=C(CCCCCCC(=O)Nc1ccccc1)NO [Vorinostat] (partner 1 µM)
Procedure, shortened: as §1

| Cell Line | relative viability (AZD8055 + Pemetrexed; first compound 0.01 µM) | relative viability (AZD8055 + Pemetrexed; first compound 0.03162 µM) | relative viability (AZD8055 + Pemetrexed; first compound 0.1 µM) | relative viability (AZD8055 + Pemetrexed; first compound 0.3162 µM) | relative viability (AZD8055 + Pemetrexed; first compound 1 µM) | relative viability (AZD8055 + Navitoclax; first compound 0.01 µM) | relative viability (AZD8055 + Navitoclax; first compound 0.03162 µM) | relative viability (AZD8055 + Navitoclax; first compound 0.1 µM) | relative viability (AZD8055 + Navitoclax; first compound 0.3162 µM) | relative viability (AZD8055 + Navitoclax; first compound 1 µM) | relative viability (AZD8055 + Linsitinib; first compound 0.01 µM) | relative viability (AZD8055 + Linsitinib; first compound 0.03162 µM) | relative viability (AZD8055 + Linsitinib; first compound 0.1 µM) | relative viability (AZD8055 + Linsitinib; first compound 0.3162 µM) | relative viability (AZD8055 + Linsitinib; first compound 1 µM) | relative viability (AZD8055 + Vorinostat; first compound 0.01 µM) | relative viability (AZD8055 + Vorinostat; first compound 0.03162 µM) | relative viability (AZD8055 + Vorinostat; first compound 0.1 µM) | relative viability (AZD8055 + Vorinostat; first compound 0.3162 µM) | relative viability (AZD8055 + Vorinostat; first compound 1 µM) |
| --- | --- | --- | --- | --- | --- | --- | --- | --- | --- | --- | --- | --- | --- | --- | --- | --- | --- | --- | --- | --- |
| NCI-H1355 | 1.06 | 0.91 | 0.772 | 0.316 | 0.235 | 0.959 | 0.736 | 0.382 | 0.21 | 0.21 | 0.684 | 0.543 | 0.354 | 0.234 | 0.214 | 0.587 | 0.541 | 0.414 | 0.214 | 0.235 |
| NCI-H1395 | 0.767 | 0.547 | 0.735 | 0.385 | 0.356 | 1.4 | 0.97 | 0.797 | 0.654 | 0.498 | 1.1 | 0.828 | 0.708 | 0.553 | 0.522 | 0.683 | 0.448 | 0.621 | 0.422 | 0.461 |
| NCI-H1437 | 0.324 | 0.308 | 0.276 | 0.23 | 0.224 | 1.23 | 1.09 | 0.921 | 0.344 | 0.213 | 0.832 | 0.731 | 0.425 | 0.143 | 0.155 | 0.914 | 0.786 | 0.708 | 0.512 | 0.311 |
| NCI-H1651 | 0.645 | 0.585 | 0.477 | 0.388 | 0.367 | 1.08 | 0.879 | 0.622 | 0.52 | 0.282 | 0.845 | 0.796 | 0.689 | 0.305 | 0.282 | 0.59 | 0.526 | 0.552 | 0.411 | 0.351 |
